The record followed here is article PMC8481687, “Anti-diabetic Potential of a Stigmasterol From the Seaweed Gelidium spinosum and Its Application in the Formulation of Nanoemulsion Conjugate for the Development of Functional Biscuits” (Frontiers in Nutrition, 2021).

In the test the target is α-amylase. Put plainly: starch hydrolysis, dinitrosalicylic acid assay at […] nm. The class given is biochemical.

Converted amounts (≈) assume the structure as drawn.

`CC[C@H](/C=C/[C@@H](C)[C@H]1CC[C@H]2[C@@H]3CC=C4C[C@@H](O)CC[C@]4(C)[C@H]3CC[C@]12C)C(C)C` [stigmasterol] returned an IC50 of 89.27 µg/mL (≈ 216 µM).

As a reminder, the IC50 is the concentration at which inhibition is half-maximal.
